Assay: Chronic DIO Mouse, first study (food intake, body weight, insulin tolerance test, glucose tolerance test, plasma insulin, fed blood glucose)
Type: in vivo
Conditions: DIO mice; for Fed Blood Glucose / Plasma Insulin: mean (Std Err); for Insulin Tolerance Test, Blood Glucose AUC: day 19; for Intraperitoneal Glucose Tolerance Test Blood Glucose AUC: day 23
Description: Male 14-20-week old diet-induced obese mice were ordered from Taconic. Mice were started on a 60% fat diet (D12492, Research Diets, New Brunswick, N.J.) at 6 weeks of age. Mice were single-housed.
Test compounds were formulated in 10% PEG400 and 10% solutol. Test compounds were administered by oral gavage (5 ml kg^−1).
The test compound was formulated in 10% PEG400 and 10% solutol. DIO mice received vehicle, test compound (@ 1, 3 and 10 mg/kg) daily for 26 days. At the end of the experiment, the mice were euthanized and blood and tissues were collected.
Body weight and food weight (food intake) were monitored daily for days 1-5 and twice weekly thereafter. Fed blood glucose was measured weekly.
An insulin tolerance test (0.5 U/kg Humulin, ip) was performed on day 19 after a 4 hour food removal. Blood glucose was measured at 0, 15, 30, 60 and 120 minutes after insulin. […] Blood glucose was measured at 0, 30, 60 and 120 minutes after glucose challenge.
Blood glucose was measured from the tail vein with a Lifescan glucometer. Plasma insulin was measured with an ELISA or HTRF kit (Cisbio). Plasma parameters were measured with an Olympus clinical chemistry analyzer.
Compound #44 was tested according to the procedure as described above, with results as listed in Table BIO-4A through Table BIO4-G, below.

SMILES: O=c1cc(NC2CCN(S(=O)(=O)C(F)(F)F)CC2)c2cc(C(c3ccc(Cl)cc3)c3ccc(Cl)cc3)ccc2[nH]1 [Compound #44, 6-(bis(4-chlorophenyl)methyl)-4-(1-(trifluoromethylsulfonyl)piperidin-4-ylamino)quinolin-2(1H)-one]
- Fed Blood Glucose (1 mg/kg daily oral, Day 0): 162.75 (13.02) mg/dL
- Fed Blood Glucose (1 mg/kg daily oral, Day 18): 154.83 (5.98) mg/dL
- Plasma Insulin (1 mg/kg daily oral): 2.60 (0.3) ng/mL
- Mean Body Weight (Std Err) (1 mg/kg daily, Day 1): 43.32 (0.45) Grams
- Mean Body Weight (Std Err) (1 mg/kg daily, Day 2): 43.28 (0.45) Grams
- Mean Daily Food Intake (Std Err) (1 mg/kg daily, Day 2): 2.84 (0.17) Grams
- Mean Body Weight (Std Err) (1 mg/kg daily, Day 3): 43.28 (0.42) Grams
- Mean Daily Food Intake (Std Err) (1 mg/kg daily, Day 3): 3.00 (0.09) Grams
- Mean Body Weight (Std Err) (1 mg/kg daily, Day 4): 43.06 (0.44) Grams
- Mean Daily Food Intake (Std Err) (1 mg/kg daily, Day 4): 2.76 (0.17) Grams
- Mean Body Weight (Std Err) (1 mg/kg daily, Day 5): 43.21 (0.50) Grams
- Mean Daily Food Intake (Std Err) (1 mg/kg daily, Day 5): 2.88 (0.12) Grams
- Mean Body Weight (Std Err) (1 mg/kg daily, Day 8): 42.62 (0.48) Grams
- Mean Daily Food Intake (Std Err) (1 mg/kg daily, Day 8): 2.50 (0.09) Grams
- Mean Body Weight (Std Err) (1 mg/kg daily, Day 10): 42.38 (0.51) Grams
- Mean Daily Food Intake (Std Err) (1 mg/kg daily, Day 10): 2.37 (0.07) Grams
- Mean Body Weight (Std Err) (1 mg/kg daily, Day 11): 42.07 (0.63) Grams
- Mean Daily Food Intake (Std Err) (1 mg/kg daily, Day 11): 2.28 (0.15) Grams
- Insulin Tolerance Test, Blood Glucose AUC (1 mg/kg daily): 18543.8 mg·min/dL
- Insulin Tolerance Test Mean Blood Glucose (Std Err) (1 mg/kg daily, day 19, 0 min after insulin): 194.0 (6.1) mg/dL
- Insulin Tolerance Test Mean Blood Glucose (Std Err) (1 mg/kg daily, day 19, 15 min after insulin): 196.1 (18.6) mg/dL
- Insulin Tolerance Test Mean Blood Glucose (Std Err) (1 mg/kg daily, day 19, 30 min after insulin): 136.7 (10.4) mg/dL
- Insulin Tolerance Test Mean Blood Glucose (Std Err) (1 mg/kg daily, day 19, 60 min after insulin): 145.1 (11.5) mg/dL
- Insulin Tolerance Test Mean Blood Glucose (Std Err) (1 mg/kg daily, day 19, 120 min after insulin): 151.4 (7.8) mg/dL
- Intraperitoneal Glucose Tolerance Test Blood Glucose AUC (1 mg/kg daily): 29525.6 mg·min/dL
- Intraperitoneal Glucose Tolerance Test Mean Blood Glucose (Std Err) (1 mg/kg daily, day 23, 0 min after glucose): 158.1 (6.9) mg/dL
- Intraperitoneal Glucose Tolerance Test Mean Blood Glucose (Std Err) (1 mg/kg daily, day 23, 30 min after glucose): 334.6 (14.5) mg/dL
- Intraperitoneal Glucose Tolerance Test Mean Blood Glucose (Std Err) (1 mg/kg daily, day 23, 60 min after glucose): 264.8 (19.7) mg/dL
- Intraperitoneal Glucose Tolerance Test Mean Blood Glucose (Std Err) (1 mg/kg daily, day 23, 120 min after glucose): 173.4 (13.5) mg/dL
- Fed Blood Glucose (3 mg/kg daily oral, Day 0): 167.13 (7.59) mg/dL
- Fed Blood Glucose (3 mg/kg daily oral, Day 18): 156.50 (7.39) mg/dL
- Plasma Insulin (3 mg/kg daily oral): 2.26 (0.3) ng/mL
- Mean Body Weight (Std Err) (3 mg/kg daily, Day 1): 43.19 (0.39) Grams
- Mean Body Weight (Std Err) (3 mg/kg daily, Day 2): 42.86 (0.47) Grams
- Mean Daily Food Intake (Std Err) (3 mg/kg daily, Day 2): 2.71 (0.13) Grams
- Mean Body Weight (Std Err) (3 mg/kg daily, Day 3): 42.71 (0.56) Grams
- Mean Daily Food Intake (Std Err) (3 mg/kg daily, Day 3): 2.92 (0.13) Grams
- Mean Body Weight (Std Err) (3 mg/kg daily, Day 4): 42.20 (0.65) Grams
- Mean Daily Food Intake (Std Err) (3 mg/kg daily, Day 4): 2.44 (0.24) Grams
- Mean Body Weight (Std Err) (3 mg/kg daily, Day 5): 41.95 (0.70) Grams
- Mean Daily Food Intake (Std Err) (3 mg/kg daily, Day 5): 2.26 (0.20) Grams
- Mean Body Weight (Std Err) (3 mg/kg daily, Day 8): 41.06 (0.76) Grams
- Mean Daily Food Intake (Std Err) (3 mg/kg daily, Day 8): 2.30 (0.11) Grams
- Mean Body Weight (Std Err) (3 mg/kg daily, Day 10): 40.50 (0.74) Grams
- Mean Daily Food Intake (Std Err) (3 mg/kg daily, Day 10): 2.14 (0.15) Grams
- Mean Body Weight (Std Err) (3 mg/kg daily, Day 11): 40.15 (0.74) Grams
- Mean Daily Food Intake (Std Err) (3 mg/kg daily, Day 11): 1.95 (0.11) Grams
- Insulin Tolerance Test, Blood Glucose AUC (3 mg/kg daily): 16879.5 mg·min/dL
- Insulin Tolerance Test Mean Blood Glucose (Std Err) (3 mg/kg daily, day 19, 0 min after insulin): 189.4 (7.3) mg/dL
- Insulin Tolerance Test Mean Blood Glucose (Std Err) (3 mg/kg daily, day 19, 15 min after insulin): 178.8 (12.5) mg/dL
- Insulin Tolerance Test Mean Blood Glucose (Std Err) (3 mg/kg daily, day 19, 30 min after insulin): 121.4 (13.7) mg/dL
- Insulin Tolerance Test Mean Blood Glucose (Std Err) (3 mg/kg daily, day 19, 60 min after insulin): 119.7 (9.6) mg/dL
- Insulin Tolerance Test Mean Blood Glucose (Std Err) (3 mg/kg daily, day 19, 120 min after insulin): 155.3 (9.5) mg/dL
- Intraperitoneal Glucose Tolerance Test Blood Glucose AUC (3 mg/kg daily): 29983.1 mg·min/dL
- Intraperitoneal Glucose Tolerance Test Mean Blood Glucose (Std Err) (3 mg/kg daily, day 23, 0 min after glucose): 161.8 (5.0) mg/dL
- Intraperitoneal Glucose Tolerance Test Mean Blood Glucose (Std Err) (3 mg/kg daily, day 23, 30 min after glucose): 352.0 (22.6) mg/dL
- Intraperitoneal Glucose Tolerance Test Mean Blood Glucose (Std Err) (3 mg/kg daily, day 23, 60 min after glucose): 264.6 (25.6) mg/dL
- Intraperitoneal Glucose Tolerance Test Mean Blood Glucose (Std Err) (3 mg/kg daily, day 23, 120 min after glucose): 169.6 (9.2) mg/dL
- Fed Blood Glucose (10 mg/kg daily oral, Day 0): 161.88 (6.71) mg/dL
- Fed Blood Glucose (10 mg/kg daily oral, Day 18): 154.00 (5.53) mg/dL
- Plasma Insulin (10 mg/kg daily oral): 2.14 (0.3) ng/mL
- Mean Body Weight (Std Err) (10 mg/kg daily, Day 1): 43.26 (0.40) Grams
- Mean Body Weight (Std Err) (10 mg/kg daily, Day 2): 42.39 (0.36) Grams
- Mean Daily Food Intake (Std Err) (10 mg/kg daily, Day 2): 2.24 (0.10) Grams
- Mean Body Weight (Std Err) (10 mg/kg daily, Day 3): 41.61 (0.41) Grams
- Mean Daily Food Intake (Std Err) (10 mg/kg daily, Day 3): 2.29 (0.16) Grams
- Mean Body Weight (Std Err) (10 mg/kg daily, Day 4): 40.76 (0.37) Grams
- Mean Daily Food Intake (Std Err) (10 mg/kg daily, Day 4): 1.70 (0.08) Grams
- Mean Body Weight (Std Err) (10 mg/kg daily, Day 5): 40.17 (0.39) Grams
- Mean Daily Food Intake (Std Err) (10 mg/kg daily, Day 5): 1.58 (0.11) Grams
- Mean Body Weight (Std Err) (10 mg/kg daily, Day 8): 38.16 (0.48) Grams
- Mean Daily Food Intake (Std Err) (10 mg/kg daily, Day 8): 1.80 (0.12) Grams
- Mean Body Weight (Std Err) (10 mg/kg daily, Day 10): 37.47 (0.56) Grams
- Mean Daily Food Intake (Std Err) (10 mg/kg daily, Day 10): 2.02 (0.13) Grams
- Mean Body Weight (Std Err) (10 mg/kg daily, Day 11): 36.67 (0.55) Grams
- Mean Daily Food Intake (Std Err) (10 mg/kg daily, Day 11): 1.94 (0.11) Grams
- Insulin Tolerance Test, Blood Glucose AUC (10 mg/kg daily): 14258.3 mg·min/dL
- Insulin Tolerance Test Mean Blood Glucose (Std Err) (10 mg/kg daily, day 19, 0 min after insulin): 163.5 (5.9) mg/dL
- Insulin Tolerance Test Mean Blood Glucose (Std Err) (10 mg/kg daily, day 19, 15 min after insulin): 138.4 (20.0) mg/dL
- Insulin Tolerance Test Mean Blood Glucose (Std Err) (10 mg/kg daily, day 19, 30 min after insulin): 96.2 (11.0) mg/dL
- Insulin Tolerance Test Mean Blood Glucose (Std Err) (10 mg/kg daily, day 19, 60 min after insulin): 99.7 (9.7) mg/dL
- Insulin Tolerance Test Mean Blood Glucose (Std Err) (10 mg/kg daily, day 19, 120 min after insulin): 143.5 (8.3) mg/dL
- Intraperitoneal Glucose Tolerance Test Blood Glucose AUC (10 mg/kg daily): 25680.0 mg·min/dL
- Intraperitoneal Glucose Tolerance Test Mean Blood Glucose (Std Err) (10 mg/kg daily, day 23, 0 min after glucose): 141.6 (6.5) mg/dL
- Intraperitoneal Glucose Tolerance Test Mean Blood Glucose (Std Err) (10 mg/kg daily, day 23, 30 min after glucose): 319.1 (26.9) mg/dL
- Intraperitoneal Glucose Tolerance Test Mean Blood Glucose (Std Err) (10 mg/kg daily, day 23, 60 min after glucose): 225.1 (20.3) mg/dL
- Intraperitoneal Glucose Tolerance Test Mean Blood Glucose (Std Err) (10 mg/kg daily, day 23, 120 min after glucose): 128.4 (5.7) mg/dL

Source: patent US9266835B2, “Quinoline derivatives useful as CB-1 inverse agonists” (JANSSEN PHARMACEUTICA NV, priority 2014, dated 2016)
